Our source for the pKa2, pKa1 and pKa3 values is ChEMBL document CHEMBL1132165, “Analogues of neuroactive polyamine wasp toxins that lack inner basic sites exhibit enhanced antagonism toward a muscle-type mammalian nicotinic acetylcholine receptor” (J Med Chem, 1999).

Holding throughout (conditions): TE-671
Assay [1] addresses Acetylcholine receptor subunit alpha (Homo sapiens) (UniProt P02708).
Description: Proteolytic properties against human muscle type nicotinic Acetylcholine receptor(nAchr) from TE671 cells, expressed as acidity constant (pKa2)
The target is the same in assay [2]. The source holds these as a separate data set.
Description: Proteolytic properties against human muscle type nicotinic Acetylcholine receptor(nAchr) from TE671 cells, expressed as acidity constant (pKa1)
For assay [3] the target is unchanged. This is another data set of the same source.
Description: Proteolytic properties against human muscle type nicotinic Acetylcholine receptor(nAchr) from TE671 cells, expressed as acidity constant (pKa3)
Assay [4] shares this target. Briefly: […] properties against human muscle type nicotinic Acetylcholine receptor (nAchr) from TE671 cells, expressed as acidity constant (pKa1). The class given is functional, cell-based.

Sequence of Acetylcholine receptor subunit alpha (Homo sapiens) (P02708 whole entry): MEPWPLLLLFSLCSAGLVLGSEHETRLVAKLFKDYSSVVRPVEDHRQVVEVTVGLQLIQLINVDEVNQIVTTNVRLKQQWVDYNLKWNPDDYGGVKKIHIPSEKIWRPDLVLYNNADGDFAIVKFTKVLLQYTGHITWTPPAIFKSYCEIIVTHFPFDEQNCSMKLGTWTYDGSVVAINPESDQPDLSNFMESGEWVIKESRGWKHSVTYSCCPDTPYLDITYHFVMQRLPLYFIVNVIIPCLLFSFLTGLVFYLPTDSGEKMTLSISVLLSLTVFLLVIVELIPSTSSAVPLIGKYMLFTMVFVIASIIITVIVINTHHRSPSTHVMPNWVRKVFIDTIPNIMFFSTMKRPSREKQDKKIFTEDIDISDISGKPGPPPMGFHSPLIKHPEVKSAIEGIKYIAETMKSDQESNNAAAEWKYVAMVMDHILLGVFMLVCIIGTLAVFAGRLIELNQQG

Take `CCCC(=O)NC(Cc1ccc(O)cc1)C(=O)NCCCNCCCCOCCCN` (stereo unspecified): the pKa2 in assay [1] is 10.2. In assay [2], this compound displayed a pKa1 of 9.47. This compound yielded a pKa3 in assay [3] of 10.9.
For `CCCC(=O)NC(Cc1ccc(O)cc1)C(=O)NCCCNCCCCCCCCN` (stereo unspecified) the same measures were 10.4, 9.71 and 11.3.
In turn, `CCCC(=O)NC(Cc1ccc(O)cc1)C(=O)NCCCOCCCCOCCCN` (stereo unspecified) yielded a pKa2 in assay [1] of 10.9. In assay [4], this compound gave a pKa1 of 10.
For `CCCC(=O)NC(Cc1ccc(O)cc1)C(=O)NCCCCCCCCCCCCN` (stereo unspecified) the same measures were 11.3 and 10.3.
For the compound `CCCC(=O)NC(Cc1ccc(O)cc1)C(=O)NCCCOCCCCNCCCN` (stereo unspecified), in assay [1], the pKa2 amounted to 10.3. The pKa1 in assay [2] came out at 9.23. Moreover, the pKa3 in assay [3] was 11.3.
For `CCCC(=O)NC(Cc1ccc(O)cc1)C(=O)NCCCCCCCCNCCCN` (stereo unspecified) the same measures were 10.2, 9.32 and 11.4.
